The text below walks through data of patent publication US5756327A, “Recombinant mycobacterial isoleucyl-tRNA synthetase genes, tester strains and assays” (priority 1995, dated 1998).

Usually Km stands for the concentration of substrate that gives half-maximal velocity.

In series [1] the target is TB IleRS (M. tuberculosis isoleucyl-tRNA synthetase) (Mycobacterium tuberculosis, UniProt P9WFV3). The series can be described thus: tRNA charging (aminoacylation) assay, sensitivity of TB IleRS to PMA. Type of series: biochemical. Particulars: concentrations of up to 250 μM. How it is done: The sensitivity of the TB IleRS for the drug pseudomonic acid A (PMA; a specific inhibitor of some prokaryotic IleRS enzymes) was tested.
Sequence of TB IleRS (M. tuberculosis isoleucyl-tRNA synthetase) (P9WFV3 2-1032): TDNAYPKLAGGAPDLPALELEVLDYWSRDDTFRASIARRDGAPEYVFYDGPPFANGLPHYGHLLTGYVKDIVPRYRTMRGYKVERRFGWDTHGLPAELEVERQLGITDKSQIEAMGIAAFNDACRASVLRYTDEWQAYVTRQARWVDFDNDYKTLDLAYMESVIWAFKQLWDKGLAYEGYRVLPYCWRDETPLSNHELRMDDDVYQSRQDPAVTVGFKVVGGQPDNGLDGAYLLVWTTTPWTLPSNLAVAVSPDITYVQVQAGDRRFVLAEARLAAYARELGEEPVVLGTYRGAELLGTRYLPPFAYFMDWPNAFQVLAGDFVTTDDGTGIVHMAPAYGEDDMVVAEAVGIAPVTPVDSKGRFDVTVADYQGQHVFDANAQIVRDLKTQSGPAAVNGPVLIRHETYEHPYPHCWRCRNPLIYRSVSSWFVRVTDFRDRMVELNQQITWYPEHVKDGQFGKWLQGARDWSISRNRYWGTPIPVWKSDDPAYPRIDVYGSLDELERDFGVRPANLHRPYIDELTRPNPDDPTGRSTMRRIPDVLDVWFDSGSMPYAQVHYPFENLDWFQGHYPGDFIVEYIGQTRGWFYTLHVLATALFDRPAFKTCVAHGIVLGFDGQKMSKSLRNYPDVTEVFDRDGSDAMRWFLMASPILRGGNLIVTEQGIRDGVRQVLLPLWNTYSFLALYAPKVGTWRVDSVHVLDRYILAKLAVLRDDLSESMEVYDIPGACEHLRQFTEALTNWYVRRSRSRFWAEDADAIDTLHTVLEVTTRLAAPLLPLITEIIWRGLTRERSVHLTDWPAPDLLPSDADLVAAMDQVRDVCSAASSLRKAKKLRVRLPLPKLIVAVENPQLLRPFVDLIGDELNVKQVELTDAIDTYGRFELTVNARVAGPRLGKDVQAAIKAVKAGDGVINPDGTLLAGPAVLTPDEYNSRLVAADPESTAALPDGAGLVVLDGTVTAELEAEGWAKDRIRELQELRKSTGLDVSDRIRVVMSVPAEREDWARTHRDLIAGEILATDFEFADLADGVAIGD
The conditions of the charging assay were as follows: At time zero, 10 μl of crude extract or purified protein was added to a reaction mixture containing 50 mM HEPES, pH 7.5, 8 mM MgCl2, 20 μM tritiated isoleucine (New England Nuclear) with a specific activity of 2200 cpm/pmol, 10 mM KF, 4 mM ATP, and 0.1 mM total tRNA from either E. coli (Sigma) or yeast (S. cerevisiae, Boehringer-Mannheim Biochemicals). At various times, 10-20 μl of the reaction were withdrawn, spotted onto Whatman 3 MM cellolose filter diskettes, and the reaction was quenched by placing the filters in 5% ice cold TCA (trichloroacetic acid). Diskettes were washed three times with ice cold 5% TCA, once with 5% ice cold ethanol, once with ether, and air dried. The amount of [^3 H]-isoleucine incorporated into tRNA bound to the filter was determined by scintillation counting in 5 mls Betafluor (Packard 1600 TR scintillation counter).

Series [2] concerns CC[C@H](C)[C@H](N)C(=O)O. Briefly: cells, lysate or membranes named. Particulars: pH 7.5.

In the case of `C/C(=C\C(=O)OCCCCCCCCC(=O)O)C[C@@H]1OC[C@H](C[C@@H]2O[C@H]2[C@@H](C)[C@H](C)O)[C@@H](O)[C@H]1O` [PMA, pseudomonic acid A], in series [1], the “inhibition of the charging activity of the enzyme” value is listed as “did not inhibit”.

For the molecule “purified TB GST-IleRS fusion protein with or without thrombin cleavage (Mycobacterium tuberculosis H37Rv)”, the Km in series [2] turned out to be 1.1 ± 0.2 µM.
